Patent US6583147B1, “Pyrazolopyrimidinone derivatives for the treatment of impotence” (Dong A Pharm Co., Ltd., priority 1998, dated 2003)
pIC50: −log10 of the molar value.

What was measured:
[1] = target: T1, Phosphodiesterase-5 enzyme (PDE 5) (Homo sapiens, UniProt O76074); assay: Test for phosphodiesterase-5 (PDE 5) activity; assay type: biochemical; settings: PDE 5 fraction from human corpus cavernosal tissues
T1 construct: separated by HPLC (Mono Q anion exchange column) with concentration gradient of 0-500 mM NaCl to elute PDE isozymes; from tissue; host or cells: human corpus cavernosal tissue

[2] = target: T2, Phosphodiesterase-3 enzyme (PDE 3) (Oryctolagus cuniculus, UniProt G1ST54); assay: Test for phosphodiesterase-3 (PDE 3) activity; assay type: biochemical; settings: PDE 3 fraction from platelets of a rabbit
T2 construct: The supernatant was separated by DEAE-cellulose column chromatography (Whatman DE52 bead); from tissue; host or cells: rabbit platelets
T2 sequence (G1ST54 1-1128): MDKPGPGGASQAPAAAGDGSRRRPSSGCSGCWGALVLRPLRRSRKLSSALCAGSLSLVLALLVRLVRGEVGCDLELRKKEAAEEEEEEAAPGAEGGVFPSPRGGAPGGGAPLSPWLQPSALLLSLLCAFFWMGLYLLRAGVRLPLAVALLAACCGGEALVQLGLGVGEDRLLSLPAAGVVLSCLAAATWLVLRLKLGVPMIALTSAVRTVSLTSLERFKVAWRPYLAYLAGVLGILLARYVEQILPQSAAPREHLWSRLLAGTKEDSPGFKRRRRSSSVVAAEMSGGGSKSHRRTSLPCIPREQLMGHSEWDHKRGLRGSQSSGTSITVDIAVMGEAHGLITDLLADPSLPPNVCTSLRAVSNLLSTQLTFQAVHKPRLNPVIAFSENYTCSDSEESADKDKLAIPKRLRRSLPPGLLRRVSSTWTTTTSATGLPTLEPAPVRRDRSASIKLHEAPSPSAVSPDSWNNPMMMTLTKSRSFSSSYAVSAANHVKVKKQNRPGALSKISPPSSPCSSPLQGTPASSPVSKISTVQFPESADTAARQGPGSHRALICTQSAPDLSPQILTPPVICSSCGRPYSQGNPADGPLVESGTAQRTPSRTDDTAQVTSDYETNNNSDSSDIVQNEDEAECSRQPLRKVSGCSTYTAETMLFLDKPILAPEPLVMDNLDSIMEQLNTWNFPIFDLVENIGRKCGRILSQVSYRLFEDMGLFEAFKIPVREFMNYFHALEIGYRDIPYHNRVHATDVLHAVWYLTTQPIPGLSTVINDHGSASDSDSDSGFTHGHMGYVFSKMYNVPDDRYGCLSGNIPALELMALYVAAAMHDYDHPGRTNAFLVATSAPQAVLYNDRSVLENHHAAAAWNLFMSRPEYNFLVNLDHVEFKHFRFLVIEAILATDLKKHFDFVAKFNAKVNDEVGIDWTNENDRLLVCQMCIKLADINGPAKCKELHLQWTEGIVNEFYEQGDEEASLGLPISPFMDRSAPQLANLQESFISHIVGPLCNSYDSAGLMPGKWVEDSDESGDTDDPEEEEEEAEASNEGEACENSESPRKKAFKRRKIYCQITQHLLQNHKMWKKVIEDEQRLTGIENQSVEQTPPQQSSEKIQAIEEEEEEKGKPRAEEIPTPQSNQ
Protocol: Phosphodiesterase-3 enzyme (PDE 3) was separated from platelets of a rabbit. About 60 ml of blood was collected from a puncture of the abdominal artery of a rabbit in heparinized syringes. Platelet-rich plasma was harvested by centrifugation for 5 min at 450×g and further centrifuged for 15 min at 1,200×g to precipitate the platelets. The platelets were resuspended in homogenizing buffer (50 mM Tris-HCl, 1 mM MgCl2, pH 7.4), homogenized at 4° C. and ultrasonicated (30 sec/ml). The homogenized solution was centrifuged (105,000×g) for 1 hr at 4° C. to obtain the supernatant in which PDE was dissolved. The supernatant was separated by DEAE-cellulose column chromatography (Whatman DE52 bead) by using eluent (50 mM Tris-HCl, 3.75mM2-mercaptoethanol, pH 6.0) with concentration gradient of 0-1 M sodium acetate to elute PDE isozymes. The PDE activity was measured on the each column fraction by the following process to separate PDE 3 fraction and the inhibition for PDE 3 of the compounds of formula 1 was measured by using the fraction.
To 1.5 ml tube containing 100 ul of reaction mixture (15 mM Tris-HCl, 5 mM MgCl2, 0.5 mg/ml BSA, pH 7.4) were added appropriate amount of PDE 3 fraction and PDE inhibitor and the solution was mixed well. After [^3H]-cAMP or [^3H]-cGMP (500 nM, 2 uCi/ml) was added, the mixture was reacted in incubator of 30° C. for about 1 hour and the reaction was quenched by putting the tube into boiling water for about 45 seconds to 2 min. The tube was chilled in ice bath for about 5 min. To this tube was added snake venom (1 mg/ml, 100 ul) or 5′-nucleotidase (0.1 unit/tube) and the mixture was reacted in incubator of 37° C. for 10 min and chilled in ice bath. 3 times volume of methanol to the resin was added to the anion exchange resin (Bio-Rad resin, AG1-X2, 200-400 mesh) which had been already washed with 0.5 N HCl, H2O, 0.5 N NaOH, H2O, 0.5 N HCl and H2O in order and adjusted to pH 5. Then 1 ml of the pretreated resin was added to the each tube with vortexing. The mixture was left at 4° C. for 15 min with occasional vortexing and centrifuged (10,000 rpm) for about 5 min to sediment the resin. The supernatant (700 ul) was transferred to a liquid scintillation vial, and mixed with 10 ml of scintillation cocktail. After stabilizing the mixture by leaving it overnight, the radioactivity of the tube was measured by β-counter.

[3] = Acute oral toxicity test in rats; settings: SD, rat, in vivo, 1 g/kg; rats, oral single dose; read-out: lethal dose (LD50) of oral administration
rats = assay: Penile erection test using rats; assay type: in vivo, rat; settings: oral single dose 10 mg/kg in 0.5% methyl cellulose, observed for 2 hours

| SMILES | pIC50 [1] | pIC50 [2] | LD50 [3] | PEI (penile erection index) (rats) | genital grooming (number of genital groomings) (rats) |
| --- | --- | --- | --- | --- | --- |
| CCOc1ccc(S(=O)(=O)NCc2ccccc2)cc1-c1nc2c(CC(C)C)nn(C)c2c(=O)[nH]1 [Example 2, 5-[2-ethoxy-5-(benzylamidosulfonyl)phenyl]-1-methyl-3-isobutyl-1,6-dihydro-7H-pyrazolo(4,3-d)pyrimidin-7-one] | 7.97 | < 3.70 | > 1000 mg/kg | 533.3 ± 305.5 | 5.7 ± 2.5 |
| CCCOc1ccc(S(=O)(=O)NC(C)C)cc1-c1nc2c(CCC)nn(C)c2c(=O)[nH]1 [Example 3, 5-[2-propyloxy-5-(isopropylamidosulfonyl)phenyl]-1-methyl-3-propyl-1,6-dihydro-7H-pyrazolo(4,3-d)pyrimidin-7-one] | 8.27 | < 3.65 | > 1000 mg/kg | 233.3 ± 152.8 | 2.7 ± 2.1 |
| CCCCNS(=O)(=O)c1ccc(OCC)c(-c2nc3c(CCC)nn(C)c3c(=O)[nH]2)c1 [Example 9, 5-[2-ethoxy-5-(butylamidosulfonyl)phenyl]-1-methyl-3-propyl-1,6-dihydro-7H-pyrazolo(4,3-d)pyrimidin-7-one] | 7.97 | < 3.65 | > 1000 mg/kg | 200.0 ± 100.0 | 4.7 ± 1.2 |
| CCCc1nn(C)c2c(=O)[nH]c(-c3cc(S(=O)(=O)Nc4ccc(C(C)C)cc4)ccc3OCC)nc12 [Example 31, 5-[2-ethoxy-5-(4-isopropylphenylamidosulfonyl)phenyl]-1-methyl-3-propyl-1,6-dihydro-7H-pyrazolo(4,3-d)pyrimidin-7-one] | 7.51 |  | > 1000 mg/kg | 300.0 ± 0 | 3.3 ± 0.6 |
| CCCc1nn(CC)c2c(=O)[nH]c(-c3cc(S(=O)(=O)Nc4ccc(F)cc4)ccc3OCC)nc12 [Example 33, 5-[2-ethoxy-5-(4-fluorophenylamidosulfonyl)phenyl]-1-ethyl-3-propyl-1,6-dihydro-7H-pyrazolo(4,3-d)pyrimidin-7-one] | 7.71 | 3.73 | > 1000 mg/kg | 233.3 ± 57.7 | 2.7 ± 0.6 |
| CCCc1nn(C)c2c(=O)[nH]c(-c3cc(S(=O)(=O)Nc4ccncc4)ccc3OCC)nc12 [Example 34, 5-[2-ethoxy-5-(4-pyridylamidosulfonyl)phenyl]-1-methyl-3-propyl-1,6-dihydro-7H-pyrazolo(4,3-d)pyrimidin-7-one] | 8.46 | 3.74 | > 1000 mg/kg | 166.7 ± 57.7 | 1.3 ± 0.6 |
| CCCc1nn(CC)c2c(=O)[nH]c(-c3cc(S(=O)(=O)Nc4ccncc4)ccc3OCC)nc12 [Example 36, 5-[2-ethoxy-5-(4-pyridylamidosulfonyl)phenyl]-1-ethyl-3-propyl-1,6-dihydro-7H-pyrazolo(4,3-d)pyrimidin-7-one] | 8.51 |  | > 1000 mg/kg | 200.0 ± 173.2 | 1.3 ± 0.6 |
| CCCc1nn(C)c2c(=O)[nH]c(-c3cc(S(=O)(=O)Nc4cccnc4)ccc3OCC)nc12 [Example 38, 5-[2-ethoxy-5-(3-pyridylamidosulfonyl)phenyl]-1-methyl-3-propyl-1,6-dihydro-7H-pyrazolo(4,3-d)pyrimidin-7-one] | 8.09 | 3.68 | > 1000 mg/kg | 233.3 ± 230.9 | 2.7 ± 2.9 |
| CCCOc1ccc(S(=O)(=O)Nc2cccnc2)cc1-c1nc2c(CCC)nn(C)c2c(=O)[nH]1 [Example 39, 5-[2-propyloxy-5-(3-pyridylamidosulfonyl)phenyl)-1-methyl-3-propyl-1,6-dihydro-7H-pyrazolo(4,3-d)pyrimidin-7-one] | 8.94 | 4.38 | > 1000 mg/kg | 166.7 ± 57.7 | 1.3 ± 1.5 |
| CCCc1nn(CC)c2c(=O)[nH]c(-c3cc(S(=O)(=O)Nc4cccnc4)ccc3OCC)nc12 [Example 40, 5-[2-ethoxy-5-(3-pyridylamidosulfonyl)phenyl]-1-ethyl-3-propyl-1,6-dihydro-7H-pyrazolo(4,3-d)pyrimidin-7-one] | 8.06 |  | > 1000 mg/kg | 177.8 ± 203.7 | 1.7 ± 1.5 |
| CCOc1ccc(S(=O)(=O)Nc2cccnc2)cc1-c1nc2c(CC(C)C)nn(C)c2c(=O)[nH]1 [Example 41, 5-[2-ethoxy-5-(3-pyridylamidosulfonyl)phenyl]-1-methyl-3-isobutyl-1,6-dihydro-7H-pyrazolo(4,3-d)pyrimidin-7-one] | 8.64 | 5.00 | > 1000 mg/kg | 177.8 ± 203.7 | 1.7 ± 1.5 |
| CCCc1nn(CC)c2c(=O)[nH]c(-c3cc(S(=O)(=O)NCC4CCCN4C)ccc3OCC)nc12 (stereo not drawn) [Example 57] | 7.48 | 4.32 |  | 131.3 ± 128.1 | 1.8 ± 1.3 |
| CCCc1nn(C)c2c(=O)[nH]c(-c3cc(S(=O)(=O)NCC4CCN(C)C4)ccc3OCC)nc12 (stereo not drawn) [Example 59] | 6.85 | 3.91 |  | 150.0 ± 57.7 | 1.5 ± 0.6 |
| CCCc1nn(C)c2c(=O)[nH]c(-c3cc(S(=O)(=O)NCC4CCN(CC)C4)ccc3OCC)nc12 (stereo not drawn) [Example 63] | 7.01 | 4.28 |  | 12.5 ± 25.0 | 1.5 ± 0.6 |
| CCCc1nn(CC)c2c(=O)[nH]c(-c3cc(S(=O)(=O)NCC4CCN(CC)C4)ccc3OCC)nc12 (stereo not drawn) [Example 65] | 7.13 | 4.49 |  | 93.8 ± 94.4 | 1.8 ± 1.0 |
| CCCc1nn(CC)c2c(=O)[nH]c(-c3cc(S(=O)(=O)NCCC4CCCN4C)ccc3OCC)nc12 (stereo not drawn) [Example 69] | 7.50 | 4.12 |  | 225.0 ± 95.7 | 2.3 ± 1.0 |
